The results in this text go back to US7157594B2, “6-Fluorobicyclo[3.1.0]hexane derivatives” (Taisho Pharmaceutical Co., Ltd., priority 2001, dated 2007).

The target of data set [1] is T1, metabotropic glutamate receptor mGluR2 (Rattus norvegicus, UniProt P31421).
T1 construct: expressed in transfected cells
Nature of the data set: Antagonistic effect on glutamic acid-induced inhibition of forskolin-stimulated cAMP accumulation in CHO cells stably expressing mGluR2. It is filed as cell-based. Here is the method: Antagonistic Effect of Test Drugs on cAMP Accumulation in CHO Cells Modified to Stably Express Metabotropic Glutamate Receptor mGluR2
Using Dulbecco's modified Eagle's medium with 10% dialyzed fetal bovine serum [1% proline, 50 units/ml penicillin, 50 μg/ml streptomycin, 2 mM L-glutamine (added before use)], CHO cells modified to stably express metabotropic glutamate receptor mGluR2 were seeded in 96-well plates at a ratio of 1.26×10^4 cells/well/0.32 cm^2/150 μl and grown at 37° C. under 5% CO2 for 2 days. The medium was then replaced by L-glutamine-free medium, and after 4 hours, the supernatant was removed by aspiration. PBS(+)-IBMX (10 mM PBS(−), 1 mM MgCl2, 1 mM CaCl2, 1 mM IBMX) was added in 150 μl aliquots and the plates were incubated for 20 minutes at 37° C. under 5% CO2. […] The dried samples were assayed for cAMP levels using a cAMP EIA kit (Amersham). The value of control samples was subtracted from each measured cAMP level.
A general note: Cyclic AMP is a second messenger, typically raised through Gs and lowered through Gi signalling.

The next data set deals with male SD rats. Nature of the data set: Antidepressant effect by forced swimming test in rats. It is filed as in vivo, rat. As to conditions: two i.p. injections (24 hours and 1 hour before) at 0.3, 1 or 3 mg/kg, compared to solvent group, Dunnett's test, FIGS. 1 and 2. Here is the method:
Evaluation of Antidepressant Effect by Forced Swimming Test in Rats
• (1) The animals used for this experiment were male SD rats (body weigh: 220–240 g, Charles River Japan). • (2) The test drugs used were:
Namely, the rats were placed in a cylinder containing water 30 cm deep and forced to swim for 15 minutes. After a period of 24 hours, the rats were forced again to swim for 5 minutes (actual experiment). The immobility time in this actual experiment was measured for each rat to evaluate the antidepressant effect of test drugs.
The test groups received two intraperitoneal injections (24 hours and 1 hour before the actual experiment) of LY341495 or Compound 34 in 1/15 M phosphate buffer at a dose of 0.3 mg/kg, 1 mg/kg or 3 mg/kg. The solvent group received only 1/15 M phosphate buffer by intraperitoneal route. • (4) The symbols * and ** in FIGS. 1 and 2 denote statistical significance at P<0.05 and P<0.01 by Dunnett's test, respectively, when compared to the solvent group receiving 1/15 M phosphate buffer.

Setting [2] is: read-out: IC50, concentration required for 50% antagonism of inhibitory effect of 30 μM glutamic acid on 10^-5 M forskolin-stimulated cAMP level.
The mark [3] stands for this setting: 30 μM glutamic acid, 10^-5 M forskolin.

What is called melting point is the temperature, or range, at which the solid turns liquid.

The structures appear in SMILES notation. Like-named read-outs stand apart in the source and are kept apart here. Where only a bound is given, the exact number is not on record here.

T1 sequence (P31421 19-872): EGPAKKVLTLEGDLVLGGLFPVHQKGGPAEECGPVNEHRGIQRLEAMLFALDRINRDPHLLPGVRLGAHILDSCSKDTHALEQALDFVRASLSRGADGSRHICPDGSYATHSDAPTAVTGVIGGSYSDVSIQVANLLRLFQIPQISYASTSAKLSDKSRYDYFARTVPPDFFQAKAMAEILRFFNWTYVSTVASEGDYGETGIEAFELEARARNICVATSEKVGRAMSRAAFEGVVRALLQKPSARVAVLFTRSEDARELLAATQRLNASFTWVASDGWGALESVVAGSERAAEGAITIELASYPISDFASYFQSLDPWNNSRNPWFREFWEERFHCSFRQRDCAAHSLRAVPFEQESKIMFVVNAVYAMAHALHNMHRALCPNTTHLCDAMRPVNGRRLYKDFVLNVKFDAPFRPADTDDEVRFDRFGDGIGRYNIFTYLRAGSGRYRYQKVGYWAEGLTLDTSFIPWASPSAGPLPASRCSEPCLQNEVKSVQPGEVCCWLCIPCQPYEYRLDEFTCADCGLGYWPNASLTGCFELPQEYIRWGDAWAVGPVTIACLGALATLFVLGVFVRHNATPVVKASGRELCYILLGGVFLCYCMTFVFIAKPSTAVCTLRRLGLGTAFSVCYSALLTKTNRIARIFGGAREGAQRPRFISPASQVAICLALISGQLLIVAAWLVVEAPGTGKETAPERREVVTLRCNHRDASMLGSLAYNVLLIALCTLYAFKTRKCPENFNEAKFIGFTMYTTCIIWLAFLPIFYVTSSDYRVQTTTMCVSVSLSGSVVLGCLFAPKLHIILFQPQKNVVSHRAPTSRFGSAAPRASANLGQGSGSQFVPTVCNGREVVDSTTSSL

Regarding `CCOC(=O)[C@@]1(N)[C@H]2[C@@H](C[C@H]1OCc1ccc(Cl)c(Cl)c1)[C@]2(F)C(=O)O`, the melting point was greater than 233 °C.
Still for that read-out and setting: the value for `Nc1cccc(CO[C@@H]2C[C@@H]3[C@H]([C@]2(N)C(=O)O)[C@@]3(F)C(=O)O)c1` (hydrate or solvate) was greater than 190 °C; that for `CC(O[C@@H]1C[C@@H]2[C@H]([C@]1(N)C(=O)O)[C@@]2(F)C(=O)O)c1ccc2ccccc2c1` (relative stereo) [57] was greater than 185 °C; that for `CC(O[C@@H]1C[C@@H]2[C@H]([C@]1(N)C(=O)O)[C@@]2(F)C(=O)O)c1ccc2ccccc2c1` (relative stereo) [58] was greater than 188 °C.
Consider `CO[C@@H]1C[C@@H]2[C@H]([C@]1(N)C(=O)O)[C@@]2(F)C(=O)O` [Compound 1, (1R,2R,3R,5R,6R)-2-amino-3-methoxy-6-fluorobicyclo[3.1.0]hexane-2,6-dicarboxylic acid], for which the melting point is greater than 199 °C. Also, the IC50 in data set [1] (setting [2]) came to 229 nM.
`COC1C[C@@H]2[C@@H]([C@@]2(F)C(=O)O)[C@]1(N)C(=O)O` (stereo partly drawn) [Compound 2]: the melting point is greater than 171 °C.
Same read-out and setting: the value for `C=CCO[C@@H]1C[C@@H]2[C@H]([C@]1(N)C(=O)O)[C@@]2(F)C(=O)O` [Compound 5, (1R,2R,3R,5R,6R)-2-Amino-3-(2-propenyloxy)-6-fluorobicyclo[3.1.0]hexane-2,6-dicarboxylic acid] was greater than 248 °C.
The compound `NC1(C(=O)O)C(OCc2ccccc2)CC2C1C2(F)C(=O)O` (stereo not drawn) [Compound 6] came in with a melting point greater than 226 °C. Besides, in data set [1] (setting [3]), the IC50 was 131 nM.
The compound `N[C@]1(C(=O)O)[C@H]2[C@@H](C[C@H]1OCc1ccc(Cl)cc1)[C@]2(F)C(=O)O` [Compound 22] gave a melting point greater than 220 °C. Moreover, in data set [1] (setting [2]), the IC50 was found to be 29.1 nM.
`NC1(C(=O)O)C(OCc2ccc(F)c(F)c2)CC2C1C2(F)C(=O)O` (stereo not drawn) [Compound 28]: the IC50 in data set [1] (setting [3]) turned out to be 40.8 nM.
On to `N[C@]1(C(=O)O)[C@H]2[C@@H](C[C@H]1OCc1ccc(Cl)c(Cl)c1)[C@]2(F)C(=O)O` [Compound 34, (1R,2R,3R,5R,6R)-2-amino-3-(3,4-dichlorobenzyloxy)-6-fluorobicyclo[3.1.0]hexane-2,6-dicarboxylic acid], for which, in data set [1] (setting [2]), the IC50 is 20 nM. Further, the “immobility time in forced swimming test” value in the data set on male SD rats was “significant dose-dependent reduction in immobility time”.
Compound `NC1(C(=O)O)C(OCc2ccc3ccccc3c2)CC2C1C2(F)C(=O)O` (stereo not drawn) [Compound 42] yielded a melting point greater than 210 °C. The same compound came in with an IC50 in data set [1] (setting [3]) of 22.7 nM.
`CCCC(C)OC1C[C@@H]2[C@@H]([C@@]2(F)C(=O)O)[C@]1(N)C(=O)O` (stereo partly drawn) [Compound 44] displayed a melting point greater than 170 °C.
As for `NC1(C(=O)O)C(OC(c2ccccc2)c2ccccc2)CC2C1C2(F)C(=O)O` (stereo not drawn) [Compound 52], the melting point was greater than 230 °C. Moreover, the IC50 in data set [1] (setting [3]) came out at 24.4 nM.
`N[C@](CC1c2ccccc2Oc2ccccc21)(C(=O)O)[C@H]1C[C@@H]1C(=O)O` [LY341495, (2S)-2-amino-2-((1S,2S)-2-carboxycycloprop-1-yl)-3-(9-xanthyl)propionic acid, reference compound]: in the data set with male SD rats, the “immobility time in forced swimming test” value is reported as “significant dose-dependent reduction in immobility time”.
